Values joined by “and” are separate entries in the source; they are usually repeats but may differ in a detail not shown here. Identical values can stand only once.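 Method: 48-hour compound exposure of cells in 96-well plates, five concentrations, linear interpolation of endpoints. GI50 marks 50% less growth. The concentration for full growth arrest is given as TGI.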
How the values were obtained:
Assay in all cases: NCI tumour cell line growth inhibition, 48 h
HCT-116 colon = tested on: HCT-116 colon
HOP-92 NSCLC = tested on: HOP-92 NSCLC
K-562 leukemia = tested on: K-562 leukemia
MDA-MB-435 = tested on: MDA-MB-435
OVCAR-3 ovarian = tested on: OVCAR-3 ovarian
OVCAR-4 ovarian = tested on: OVCAR-4 ovarian
RXF 393 renal = tested on: RXF 393 renal
T-47D breast = tested on: T-47D breast
LXFL 529 NSCLC = tested on: LXFL 529 NSCLC
DMS 114 small cell lung = tested on: DMS 114 small cell lung

SMILES | GI50 (HCT-116 colon) | TGI (HCT-116 colon) | GI50 (HOP-92 NSCLC) | TGI (HOP-92 NSCLC) | GI50 (K-562 leukemia) | TGI (K-562 leukemia) [µM] | GI50 (MDA-MB-435) | TGI (MDA-MB-435) | GI50 (OVCAR-3 ovarian) | TGI (OVCAR-3 ovarian) | GI50 (OVCAR-4 ovarian) | TGI (OVCAR-4 ovarian) | GI50 (RXF 393 renal) | TGI (RXF 393 renal) | GI50 (T-47D breast) | TGI (T-47D breast) | GI50 (LXFL 529 NSCLC) [µM] | TGI (LXFL 529 NSCLC) [µM] | TGI (DMS 114 small cell lung) [µM]
COc1cc(/C=C\c2cc(OC)c(OC)c(OC)c2)cc(N/C=C\C(=O)c2ccc(OC(F)(F)F)cc2)c1OC | 3580 nM | > 100 µM | 12600 nM | > 100 µM | 2930 nM | > 100 | 1840 nM | 5.52 µM | 3.48 µM | 10.6 µM | 7.54 µM | > 100 µM | 2180 nM | 7.17 µM | 4160 nM | > 100 µM | – | – | –
Nc1nccc(-c2c(-c3ccc(F)cc3)ncn2C2CCNCC2)n1 | 3520 nM and 1470 nM | > 25 µM | 3070 nM | > 25 µM | 5920 nM and 2920 nM | > 25 | 2870 nM and 4170 nM | > 25 µM | 6.78 µM and 4.93 µM | > 25 µM | 1.86 µM and 2.77 µM | > 25 µM and 13.1 µM | 2350 nM and 3600 nM | > 25 µM and 10.5 µM | 1550 nM and 4200 nM | > 25 µM | – | – | –
OCCN1CCN(CCCN2c3ccccc3Sc3ccc(Cl)cc32)CC1 | 1760 nM | 3.55 µM | 1370 nM | 6.72 µM | 2100 nM | 4.45 | 1720 nM | 3.33 µM | 2.59 µM | 6.73 µM | 4.49 µM | 17.4 µM | 1960 nM | 7.68 µM | 1910 nM | 5.56 µM | – | – | –
CCC(C)[C@H]1O[C@]2(CC[C@@H]1C)C[C@@H]1C[C@@H](C/C=C(\C)[C@@H](OC3C[C@H](OC)C(O[C@H]4C[C@H](OC)[C@@H](O)[C@H](C)O4)[C@H](C)O3)[C@@H](C)/C=C/C=C3\CO[C@@H]4[C@H](O)C(C)=C[C@@H](C(=O)O1)[C@]34O)O2 (stereo partly specified) | 2720 nM | 10.7 µM | 1980 nM | 8.18 µM | 3880 nM | 15.4 | 3890 nM | 15.9 µM | 3.12 µM | 9.3 µM | 3.28 µM | 10.8 µM | 1370 nM | 2.81 µM | 1570 nM | 3.35 µM | – | – | –
CN(c1ncccc1CNc1nc(Nc2ccc3c(c2)CC(=O)N3)ncc1C(F)(F)F)S(C)(=O)=O | 1520 nM and 2500 nM | 12.6 µM and > 10 µM | 98.7 nM and 192 nM | 1.85 µM and 5.99 µM | 2970 nM and 3450 nM | > 100 | 1460 nM and 2740 nM | 11.4 µM and > 10 µM | 2.42 µM and 2.81 µM | > 26.9 µM | 2.1 µM and 3.56 µM | 11 µM and > 10 µM | 1610 nM and 1480 nM | 3.98 µM and 4.08 µM | 3220 nM and 2720 nM | > 33 µM and 9.35 µM | – | – | –
COc1cc(Nc2nc3cc(N)cc(N)c3nc2-c2ccccc2)cc(OC)c1OC | 15400 nM | 34.1 µM | 2730 nM | 21 µM | 12500 nM | 40.1 | 7350 nM | 24.4 µM | 14.2 µM | 37.1 µM | 0.0313 µM | 0.892 µM | 14400 nM | 34.4 µM | 6070 nM | 27.3 µM | – | – | –
N.N.N.N.N.[Co+3].[I-].[N-]=[N+]=[N-] | > 100000 nM | > 100 µM | > 100000 nM | > 100 µM | > 100000 nM | > 100 | – | – | > 100 µM | > 100 µM | > 100 µM | > 100 µM | – | – | – | – | > 100 | > 100 | –
O=C(N/C(=C\c1ccc(Cl)cc1)c1nc2ccccc2[nH]1)c1ccccc1 | – | 29.1 µM | – | 33.6 µM | – | 38.8 | – | – | – | 49 µM | – | 37.9 µM | – | 42.7 µM | – | – | – | 38.6 | –
COc1cc2c(cc1OC)[C@@H](Nc1ccc(C#N)cc1)C1COC(=O)[C@@H]1C2c1cc(OC)c(O)c(OC)c1 (stereo partly specified) | 6810 nM and 3230 nM | 25.8 µM and > 100 µM | – | – | – | – | – | > 100 µM | 3.26 µM and 5.65 µM | 20 µM and 28.4 µM | 19.1 µM and 26.8 µM | 75.1 µM and > 100 µM | – | 35.9 µM | – | > 100 µM | – | 95 | –
O=Nc1ccc(O)c(=O)cc1 | 961 nM | 3.49 µM | 998 nM | 3.39 µM | 498 nM | > 100 | 3280 nM | 13.2 µM | 1.39 µM | 5.07 µM | 1.71 µM | 4.83 µM | 572 nM | 1.59 µM | 1760 nM | 4.28 µM | – | – | –
COc1ccc(C/C(=N/O)C(=O)NCCc2cc(Br)c(OCCCN(C)C)c(Br)c2)cc1Br | – | 28 µM | – | – | – | – | – | – | – | 40.4 µM | – | 38.8 µM | – | 38.5 µM | – | – | – | 29.7 | 36.5
CCN1C(=S)N(c2ccccc2)C2NC(=S)N(/N=C/C=C/c3ccccc3OC)C21 (stereo unspecified) | 360 nM | > 100 µM | 3980 nM | > 100 µM | 302 nM | > 100 | 77.5 nM | 0.337 µM | 0.267 µM | 0.721 µM | 0.839 µM | > 100 µM | 189 nM | 0.65 µM | > 100000 nM | > 100 µM | – | – | –
COc1ccc(/C=C(/C#N)C(N)=O)c(OC)c1 | – | > 100 µM | – | > 100 µM | – | > 100 | – | 48.5 µM | – | > 100 µM | – | > 100 µM | – | > 100 µM | – | > 100 µM | – | – | –
Cc1cn(C2CC(O)C(COC(=O)c3ccccc3)O2)c(=O)[nH]c1=O (stereo unspecified) | – | > 100 µM | – | > 100 µM | – | > 100 | – | – | – | > 100 µM | – | > 100 µM | – | > 100 µM | – | – | – | > 100 | –
NS(=O)(=O)c1ccc(Nc2cc(-c3cccc(O)c3)[nH]n2)cc1 | > 25000 nM | > 25 µM | 10200 nM | > 25 µM | > 25000 nM | > 25 | > 25000 nM | > 25 µM | 16.2 µM | > 25 µM | 13.5 µM | > 25 µM | > 25000 nM | > 25 µM | 10000 nM | > 25 µM | – | – | –
O=S(=O)(NCCCNc1nccc(-c2c(-c3ccc(O)cc3)nc3sccn23)n1)c1ccc(F)cc1 | 1250 nM | 4.77 µM | 2650 nM | 8.56 µM | 1670 nM | > 100 | 245 nM | 4.76 µM | 2.66 µM | 12.1 µM | 3.36 µM | 9.92 µM | 2740 nM | > 100 µM | 1390 nM | 3.55 µM | – | – | –
CCN(Cc1ccc(C)cc1)c1ccc(CO)c(Cl)c1 | 96.6 nM | 4.11 µM | 1860 nM | 15.3 µM | 2000 nM | > 50.5 | 13700 nM | 28.5 µM | 0.605 µM | 5.31 µM | 0.274 µM | 4.11 µM | 4710 nM | 18.9 µM | 149 nM | 0.623 µM | – | – | –

— PubChem BioAssay (NCI)
